The test system of one assay is L. amaz. The experiment in a line: L. amaz growth inhibition EC50. The class given is cell-based. Particulars: read-out: F) L. amaz EC50.
A further assay concerns E. faecium (ATCC 51559). Kind of assay: E. faecium (ATCC 51559) MIC/EC50. The class given is cell-based.
The test system of a further assay is S. aureus (ATCC 29213). The experiment in a line: S. aureus (ATCC 29213) MIC/EC50. The class given is cell-based. Particulars: Staphylococcus aureus, ATCC29213; S. aureus ATCC 29213; read-out: I) S. aureus (ATCC 29213) MIC/EC50, MIC.
In a further assay the target is MetRS (Giardia) (Giardia intestinalis, UniProt A8BY75). Kind of assay: biochemical. The settings on record: read-out: D) MetRS (Giardia) aminoacylation assay with modified cpd dilution method IC50.
Chain of MetRS (Giardia) (A8BY75 entry or part of it): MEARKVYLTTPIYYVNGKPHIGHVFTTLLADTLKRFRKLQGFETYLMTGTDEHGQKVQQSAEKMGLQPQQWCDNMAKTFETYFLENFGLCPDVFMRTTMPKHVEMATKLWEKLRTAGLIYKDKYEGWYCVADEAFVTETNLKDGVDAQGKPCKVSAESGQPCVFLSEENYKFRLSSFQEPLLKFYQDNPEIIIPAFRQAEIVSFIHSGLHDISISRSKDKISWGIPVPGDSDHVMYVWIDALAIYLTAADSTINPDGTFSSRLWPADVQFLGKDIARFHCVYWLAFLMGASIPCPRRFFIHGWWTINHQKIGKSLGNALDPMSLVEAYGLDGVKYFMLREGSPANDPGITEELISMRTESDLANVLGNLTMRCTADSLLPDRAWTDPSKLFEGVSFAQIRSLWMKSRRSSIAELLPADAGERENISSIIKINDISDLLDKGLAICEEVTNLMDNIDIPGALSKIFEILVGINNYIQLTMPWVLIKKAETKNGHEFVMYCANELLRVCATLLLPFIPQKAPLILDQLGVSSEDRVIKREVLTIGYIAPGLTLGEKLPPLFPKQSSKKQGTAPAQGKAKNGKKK
In a further assay the test system is E. faecalis (ATCC 29212). The experiment in a line: E. faecalis (ATCC 29212) MIC/EC50. The class given is cell-based.
A further assay deals with MetRS (T. brucei) (Trypanosoma brucei brucei, UniProt Q38C91). Kind of assay: MetRS (T. brucei) ATP depletion assay using Kinase-Glo. The class given is biochemical. (Kinase-Glo measures the ATP left after a reaction by luminescence.)
Chain of MetRS (T. brucei) (Q38C91 entry or part of it): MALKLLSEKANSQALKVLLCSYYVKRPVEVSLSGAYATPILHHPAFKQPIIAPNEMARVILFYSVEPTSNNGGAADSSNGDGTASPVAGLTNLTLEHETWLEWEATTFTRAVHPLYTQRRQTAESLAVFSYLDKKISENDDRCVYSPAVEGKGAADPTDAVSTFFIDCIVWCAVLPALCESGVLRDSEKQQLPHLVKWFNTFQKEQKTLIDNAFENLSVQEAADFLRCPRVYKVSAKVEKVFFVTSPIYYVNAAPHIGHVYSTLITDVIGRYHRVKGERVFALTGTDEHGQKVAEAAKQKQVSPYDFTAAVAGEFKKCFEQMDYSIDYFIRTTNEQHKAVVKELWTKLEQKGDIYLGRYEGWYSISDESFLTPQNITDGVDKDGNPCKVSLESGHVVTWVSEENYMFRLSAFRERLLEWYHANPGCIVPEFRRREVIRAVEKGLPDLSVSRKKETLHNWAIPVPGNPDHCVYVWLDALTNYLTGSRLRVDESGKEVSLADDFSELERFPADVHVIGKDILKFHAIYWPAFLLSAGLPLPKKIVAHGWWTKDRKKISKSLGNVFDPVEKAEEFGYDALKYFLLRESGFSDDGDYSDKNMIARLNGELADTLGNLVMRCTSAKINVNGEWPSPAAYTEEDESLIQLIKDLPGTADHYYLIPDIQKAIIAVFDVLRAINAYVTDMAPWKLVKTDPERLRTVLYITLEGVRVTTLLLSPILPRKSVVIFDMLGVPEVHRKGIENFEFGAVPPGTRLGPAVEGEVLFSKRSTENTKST
Assay [1] concerns Giardia intestinalis (ATCC 50580). Kind of assay: Giardia intestinalis (ATCC 50580) growth inhibition EC50. The class given is cell-based.
The target in a further assay is MetRS (S. aureus) (Staphylococcus aureus, UniProt Q5HII6). Kind of assay: biochemical. Particulars: ATP depletion, Kinase-Glo; read-out: H) MetRS (S. aureus) ATP depletion assay using Kinase-Glo with modified cpd dilution method, IC50.
Chain of MetRS (S. aureus) (Q5HII6 whole entry): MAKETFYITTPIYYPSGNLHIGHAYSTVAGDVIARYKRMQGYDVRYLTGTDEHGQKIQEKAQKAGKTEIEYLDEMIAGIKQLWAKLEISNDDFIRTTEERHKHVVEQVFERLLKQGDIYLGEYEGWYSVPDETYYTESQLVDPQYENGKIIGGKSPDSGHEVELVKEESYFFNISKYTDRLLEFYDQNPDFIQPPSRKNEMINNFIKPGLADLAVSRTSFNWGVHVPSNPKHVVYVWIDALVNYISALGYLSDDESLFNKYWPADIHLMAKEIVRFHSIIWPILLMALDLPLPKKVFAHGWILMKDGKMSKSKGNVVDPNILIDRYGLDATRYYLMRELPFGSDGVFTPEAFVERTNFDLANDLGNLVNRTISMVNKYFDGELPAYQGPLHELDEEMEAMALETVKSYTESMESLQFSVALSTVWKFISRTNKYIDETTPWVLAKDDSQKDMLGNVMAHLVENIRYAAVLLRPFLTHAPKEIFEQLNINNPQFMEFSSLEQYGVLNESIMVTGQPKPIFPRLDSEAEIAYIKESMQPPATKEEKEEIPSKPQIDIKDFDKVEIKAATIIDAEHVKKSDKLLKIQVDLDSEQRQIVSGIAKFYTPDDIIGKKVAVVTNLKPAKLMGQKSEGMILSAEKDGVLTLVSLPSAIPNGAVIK
The subject of another assay is T. cruzi. The experiment in a line: T. cruzi growth inhibition EC50. The class given is cell-based.
Assay [2] has as its system S. aureus MRSA (ATCC 43300). The experiment in a line: S. aureus MRSA (ATCC 43300) MIC/EC50. The class given is cell-based. Particulars: Staphylococcus aureus; S. aureus MRSA ATCC 43300; read-out: J) S. aureus MRSA (ATCC 43300) MIC/EC50, MIC.
A further assay relates to T. brucei. Kind of assay: Growth inhibition assay of T. brucei cell cultures (Alamar Blue, 48 h). The class given is cell-based. On the technique in general: Resazurin is reduced to fluorescent resorufin, in cell work by metabolically active cells.
The test system of another assay is P. fal (3D37). Kind of assay: P. fal (3D37) growth inhibition EC50. The class given is cell-based. Particulars: read-out: G) P. fal (3D37) EC50.
Where [3] appears, read: Giardia duodenalis, ATCC50580; read-out: E) Giardia intestinalis (ATCC 50580) EC50.
The mark [4] stands for this setting: read-out: E) Giardia intestinalis (ATCC 50580) EC50.
Where [5] appears, read: Trypanosoma cruzi; read-out: C) T. cruzi EC50.
Where [6] appears, read: Trypanosoma brucei; read-out: B) T. brucei EC50.

In brackets after ≈: the same amount, converted by molar mass. Several values for one entry are separate records, joined by “and”; a condition that tells them apart may be missing. Equal entries are not always repeated. Where two headings read alike, the source gives them in different places. Bounds are passed on as bounds.

By EC50 is commonly meant the concentration needed to bring the measured effect to its halfway point. For orientation: IC50 means the concentration that inhibits the measured activity by half. As to `Fc1ccc2nc(NCCCN[C@@H]3CCNc4c(Cl)cc(Cl)cc43)[nH]c2n1` [Compound 1717, (4R)-6,8-dichloro-N-[3-({5-fluoro-3H-imidazo[4,5-b]pyridin-2-yl}amino)propyl]-1,2,3,4-tetrahydroquinolin-4-amine], the EC50 with L. amaz was 2850 nM; in assay [1] (setting [3]), 590 nM; in assay [1] (setting [4]), 316 nM; in the assay with T. cruzi (setting [5]), over 4.57 nM; in the assay with T. cruzi (read-out: C) T. cruzi EC50) it was 3.72 nM. The “L) E. faecium (ATCC 51559) MIC/EC50, MIC” value in the assay with E. faecium (ATCC 51559) was over 0.04 µg/mL. The MIC (in the assay with S. aureus (ATCC 29213); in assay [2]) was 0.157 µg/mL (≈ 0.384 µM) each time. Also, the 50% inhibitory concentration (IC50) on MetRS (Giardia) was 3 nM; against MetRS (T. brucei), 28 nM; at MetRS (S. aureus) it was 28 nM. In the assay on E. faecalis (ATCC 29212), the “K) E. faecalis (ATCC 29212) MIC/EC50, MIC” value was > 0.04 µg/mL and 0.079 µg/mL.
As to `Fc1ccc2nc(NCCCN[C@@H]3CCOc4c(Cl)cc(Cl)cc43)[nH]c2n1` [Compound 1709, (4R)-6,8-dichloro-N-[3-({5-fluoro-3H-imidazo[4,5-b]pyridin-2-yl}amino)propyl]-3,4-dihydro-2H-1-benzopyran-4-amine], the concentration giving a half-maximal response (EC50) in the assay on L. amaz is 1300 nM and 1130 nM; in [1] (setting [3]), 664 nM; in [1] (setting [4]) it was 492 nM; in the assay on T. cruzi (setting [5]) it was over 4.57 nM; in the assay on T. cruzi (read-out: C) T. cruzi EC50), 5.05 nM. Also, the “L) E. faecium (ATCC 51559) MIC/EC50, MIC” value in the assay on E. faecium (ATCC 51559) was over 0.04 µg/mL. Besides, the IC50 at MetRS (Giardia) is 2 nM; against MetRS (T. brucei) it was 8 nM; on MetRS (S. aureus), 19 nM.
With `O=C(CCOc1ccc(Cl)cc1Cl)NCc1nc2ccccc2[nH]1` [Compound 1683, N-(1H-1,3-benzodiazol-2-ylmethyl)-3-(2,4-dichlorophenoxy)propanamide], the concentration for a half-maximal effect (EC50) in the assay on L. amaz was over 1000 nM; in assay [1] (setting [3]) it was over 2000 nM; in the assay with T. cruzi (setting [5]) it was over 10000 nM; in the assay with T. brucei (setting [6]) it was 8830 nM. For the same molecule, the half-maximal inhibitory concentration (IC50) is over 1000 nM on MetRS (Giardia) and 74 nM against MetRS (T. brucei).
Consider `C[C@@H](CNCc1cc(Cl)cc(Cl)c1)CNc1nc2cccnc2[nH]1` [Compound 1655, (S)-N1-(3,5-dichlorobenzyl)-N3-(1H-imidazo[4,5-b]pyridin-2-yl)-2-methylpropane-1,3-diamine], for which the EC50 with L. amaz turned out to be 6740 nM; with T. cruzi (setting [5]), 709 nM; in the assay on T. brucei (setting [6]), 11.3 nM; in the assay on T. brucei (read-out: B) T. brucei EC50), 7.97 nM. In addition, the MIC (in the assay with S. aureus (ATCC 29213); in assay [2]) was 10 µg/mL (≈ 27.5 µM) each time. Further, the results for the concentration for half-maximal inhibition (IC50) on MetRS (T. brucei) and at MetRS (S. aureus) were 43 nM and 171 nM, respectively.
For `Fc1ccc2nc(NCCCN[C@H]3CCOc4c(Cl)cc(Cl)cc43)[nH]c2n1` [Compound 1711, (4S)-6,8-dichloro-N-[3-({5-fluoro-3H-imidazo[4,5-b]pyridin-2-yl}amino)propyl]-3,4-dihydro-2H-1-benzopyran-4-amine], the “L) E. faecium (ATCC 51559) MIC/EC50, MIC” value in the assay with E. faecium (ATCC 51559) is over 10 µg/mL. In addition, the “K) E. faecalis (ATCC 29212) MIC/EC50, MIC (ug/ml)” value in the assay with E. faecalis (ATCC 29212) was >10, >10 ug/ml. Further, the values for the concentration for half-maximal inhibition (IC50) on MetRS (T. brucei) and at MetRS (S. aureus) were 752 nM and 368 nM, respectively. The EC50 in the assay with T. brucei (setting [6]) is 2820 nM.
`Clc1cc(Cl)cc(Cn2cc(Cc3nc4ccccc4[nH]3)nn2)c1` [Compound 1753, 2-({1-[(3,5-dichlorophenyl)methyl]-1H-1,2,3-triazol-4-yl}methyl)-1H-1,3-benzodiazole]: the “L) E. faecium (ATCC 51559) MIC/EC50, MIC” value with E. faecium (ATCC 51559) was over 10 µg/mL. For the same molecule, the values for the IC50 against MetRS (T. brucei) and at MetRS (S. aureus) were 73 nM and 1100 nM, respectively. Besides, the EC50 with T. cruzi (setting [5]) is over 5000 nM; with T. brucei (setting [6]), 2330 nM.
Take `Fc1ccc2nc(NCCCNCc3cc(Cl)cc(Cl)c3)[nH]c2n1` [Compound 1614, [(3,5-dichlorophenyl)methyl][3-({5-fluoro-3H-imidazo[4,5-b]pyridin-2-yl}amino)propyl]amine]: the EC50 with L. amaz is over 1000 nM; in the assay on P. fal (3D37), 7710 nM; in assay [1] (setting [3]), 3420 nM; in assay [1] (setting [4]), 1980 nM; in the assay on T. cruzi (setting [5]) it was 39.5 nM; with T. cruzi (read-out: C) T. cruzi EC50), 35.7 nM. Further, the “L) E. faecium (ATCC 51559) MIC/EC50, MIC” value in the assay on E. faecium (ATCC 51559) is 1.25 µg/mL. Also, the MIC in the assay on S. aureus (ATCC 29213) was determined as 1.25 µg/mL (≈ 3.39 µM). For the same molecule, the IC50 was determined as 9 nM on MetRS (Giardia), 16 nM against MetRS (T. brucei) and 37 nM at MetRS (S. aureus). In addition, in the assay on E. faecalis (ATCC 29212), the “K) E. faecalis (ATCC 29212) MIC/EC50, MIC” value worked out at 0.625 µg/mL.
As to `O=C(/C=C/Oc1ccc(Cl)cc1Cl)NCc1nc2ccccc2[nH]1` [Compound 1729, (2E)-N-(1H-1,3-benzodiazol-2-ylmethyl)-3-(2,4-dichlorophenoxy)prop-2-enamide], the 50% effective concentration (EC50) in the assay on L. amaz is over 1000 nM; in the assay on T. cruzi (setting [5]), over 5000 nM; in the assay with T. brucei (setting [6]) it was 119 nM. Besides, the “L) E. faecium (ATCC 51559) MIC/EC50, MIC” value with E. faecium (ATCC 51559) is over 10 µg/mL. In addition, the IC50 was 17 nM against MetRS (T. brucei) and 27 nM at MetRS (S. aureus).
For the molecule `Clc1cc(Cl)cc(CNCCCNc2nc3ncccc3[nH]2)c1` [Compound 1575, N1-(3,5-dichlorobenzyl)-N3-(1H-imidazo[4,5-b]pyridin-2-yl)propane-1,3-diamine], the concentration giving a half-maximal response (EC50) in the assay with L. amaz was over 10000 nM; in the assay with P. fal (3D37) it was 7010 nM; in the assay with T. cruzi (setting [5]) it was 193 nM; in the assay on T. brucei (setting [6]) it was 9.36 nM; in the assay on T. brucei (read-out: B) T. brucei EC50), 7.64 nM. Also, the “L) E. faecium (ATCC 51559) MIC/EC50, MIC” value in the assay on E. faecium (ATCC 51559) is 0.625 µg/mL. For the same molecule, the IC50 on MetRS (Giardia) was found to be 36 nM; against MetRS (T. brucei), 9 nM; at MetRS (S. aureus), 35 nM.

The record behind these values is patent publication US10913736B2 (UNIVERSITY OF WASHINGTON, priority 2014, dated 2021).
